From the NIST ThermoML archive (doi:10.1021/je060001s)
Numbers after ± are expanded uncertainties.

Columns and labels:
[1] = refractive index (Na D-line) (dimensionless); conditions: 298.15 K; 101.33 kPa; Liquid; Standard Abbe refractometry
[2] = 298.15 K; 101.33 kPa; Liquid

| Compound | refractive index [1] | mass density [2] [kg/m3] |
| --- | --- | --- |
| CC#N [acetonitrile] | 1.3418 ± 0.0004 | 776.62 ± 0.52 |
| CCCC(=O)OC [methyl butanoate] | 1.3847 ± 0.0004 | 892.16 ± 0.37 |
| CCCCCC(=O)OC [methyl hexanoate] | 1.4048 ± 0.0004 | 879.47 ± 0.39 |
| CCCCC(=O)OC [methyl pentanoate] | 1.3971 ± 0.0004 | 884.8 ± 0.38 |
